These results are taken from patent publication US9499550B2 (BRISTOL-MYERS SQUIBB COMPANY, priority 2012, dated 2016).

The subject of experiment [1] is HCV genotype 1a (H77 strain) replicon in HUH-7 cells. Kind of experiment: HCV replicon luciferase reporter assay, genotype 1a. The format is cell-based. Particulars: Hepatitis C virus, Huh-7, 72 h, HCV genotype 1a replicon luciferase, 3 days incubation, read-out: LE_1a (EC50, range). The essentials: (§1)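 Replicon inhibition for both genotypes was measured as Renilla luciferase signal (EnduRen, 7.5 μM final, 2 h) after 3-day, 37° C exposure of replicon-bearing HUH-7 cells in 4% FCS DMEM, 0.5% DMSO. The 1b construct carries S1179I; the 1a H77 construct carries P1496L and S2204I. Twenty-point, 3-fold dilutions were fitted four-parametrically for EC50, and CC50 was taken from multiplexed Cell Titer-Blue.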

Experiment [2] has as its system HCV genotype 1b (Con1) replicon in HUH-7 cells. The experiment in a line: HCV replicon luciferase reporter assay, genotype 1b. Format: cell-based. To be noted: Hepatitis C virus, Huh-7, 72 h, HCV genotype 1b replicon luciferase, 3 days incubation, read-out: LE_1b (EC50, range). The procedure, abridged:
as §1

In the case of `[2H]C([2H])([2H])Oc1cnc(O[C@@H]2C[C@H]3C(=O)N[C@]4(C(=O)NS(=O)(=O)C5(C)CC5)C[C@H]4/C=C\CC[C@H](C)C[C@@H](C)[C@H](NC(=O)NC(C)(C)C)C(=O)N3C2)c2ccccc12` [Compound 5106, (2R,6S,7R,9S,13aS,14aR,16aS,Z)-6-(3-(tert-butyl)ureido)-7,9-dimethyl-N-((1-methylcyclopropyl)sulfonyl)-5,16-dioxo-2-((4-(trideuteromethoxy)isoquinolin-1-yl)oxy)-1,2,3,5,6,7,8,9,10,11,13a,14,14a,15,16,16a-hexadecahydrocyclopropa[e]pyrrolo[1,2-a][1,4]diazacyclopentadecine-14a-carboxamide], the EC50 in experiment [1] and in experiment [2] was less than 5.46 nM throughout.

In the case of `[2H]C([2H])([2H])Oc1cnc(O[C@@H]2C[C@H]3C(=O)N[C@]4(C(=O)NS(=O)(=O)C5(C)CC5)C[C@H]4/C=C\CC[C@@H](C)C[C@@H](C)[C@H](NC(=O)NC(C)(C)C)C(=O)N3C2)c2ccccc12` [Compound 5107, (2R,6S,7R,9R,13aS,14aR,16aS,Z)-6-(3-(tert-butyl)ureido)-7,9-dimethyl-N-((1-methylcyclopropyl)sulfonyl)-5,16-dioxo-2-((4-(trideuteromethoxy)isoquinolin-1-yl)oxy)-1,2,3,5,6,7,8,9,10,11,13a,14,14a,15,16,16a-hexadecahydrocyclopropa[e]pyrrolo[1,2-a][1,4]diazacyclopentadecine-14a-carboxamide], the 50% effective concentration (EC50) in experiment [1] and in experiment [2] was less than 5.46 nM in each case.

`[2H]C([2H])([2H])Oc1cnc(O[C@@H]2C[C@H]3C(=O)N[C@]4(C(=O)NS(=O)(=O)C5(C)CC5)C[C@H]4/C=C\CC[C@H](C)C[C@@H](C)[C@H](NC(=O)OC(C)(C)C(C)(F)F)C(=O)N3C2)c2ccccc12` [Compound 5108, 3,3-difluoro-2-methylbutan-2-yl((2R,6S,7R,9S,13aS,14aR,16aS,Z)-7,9-dimethyl-14a-(((1-methylcyclopropyl)sulfonyl)carbamoyl)-5,16-dioxo-2-((4-(trideuteromethoxy)isoquinolin-1-yl)oxy)-1,2,3,5,6,7,8,9,10,11,13a,14,14a,15,16,16a-hexadecahydrocyclopropa[e]pyrrolo[1,2-a][1,4]diazacyclopentadecin-6-yl)carbamate]: the concentration for a half-maximal effect (EC50) in experiment [1] and in experiment [2] was less than 5.46 nM each time.

As for `[2H]C([2H])([2H])Oc1cnc(O[C@@H]2C[C@H]3C(=O)N[C@]4(C(=O)NS(=O)(=O)C5(C)CC5)C[C@H]4/C=C\CC[C@@H](C)C[C@@H](C)[C@H](NC(=O)OC(C)(C)C(C)(F)F)C(=O)N3C2)c2ccccc12` [Compound 5109, 3,3-difluoro-2-methylbutan-2-yl((2R,6S,7R,9R,13aS,14aR,16aS,Z)-7,9-dimethyl-14a-(((1-methylcyclopropyl)sulfonyl)carbamoyl)-5,16-dioxo-2-((4-(trideuteromethoxy)isoquinolin-1-yl)oxy)-1,2,3,5,6,7,8,9,10,11,13a,14,14a,15,16,16a-hexadecahydrocyclopropa[e]pyrrolo[1,2-a][1,4]diazacyclopentadecin-6-yl)carbamate], the EC50 in experiment [1] and in experiment [2] was less than 5.46 nM each time.

On to `[2H]C([2H])([2H])Oc1cnc(O[C@@H]2C[C@H]3C(=O)N[C@]4(C(=O)NS(=O)(=O)C5(C)CC5)C[C@H]4CCCC[C@@H](C)C[C@@H](C)[C@H](NC(=O)OC(C)(C)C(F)(F)F)C(=O)N3C2)c2ccccc12` [Compound 5111, 1,1,1-trifluoro-2-methylpropan-2-yl((2R,6S,7R,9R,13aR,14aR,16aS)-7,9-dimethyl-14a-(((1-methylcyclopropyl)sulfonyl)carbamoyl)-5,16-dioxo-2-((4-(trideuteromethoxy)isoquinolin-1-yl)oxy)octadecahydrocyclopropa[e]pyrrolo[1,2-a][1,4]diazacyclopentadecin-6-yl)carbamate], for which the EC50 in experiment [1] and in experiment [2] was less than 5.46 nM each time.

As for `COc1cnc(O[C@@H]2C[C@H]3C(=O)N[C@]4(C(=O)NS(=O)(=O)C5(CF)CC5)C[C@H]4CCCC[C@@H](C)C[C@@H](C)[C@H](NC(=O)OC(C)(C)C)C(=O)N3C2)c2ccccc12` [Compound 5115, tert-butyl ((2R,6S,7R,9R,13aR,14aR,16aS)-14a-(((1-(fluoromethyl)cyclopropyl)sulfonyl)carbamoyl)-2-((4-methoxyisoquinolin-1-yl)oxy)-7,9-dimethyl-5,16-dioxooctadecahydrocyclopropa[e]pyrrolo[1,2-a][1,4]diazacyclopentadecin-6-yl)carbamate], the 50% effective concentration (EC50) in experiment [1] and in experiment [2] was less than 5.46 nM throughout.

Regarding `COc1cnc(O[C@@H]2C[C@H]3C(=O)N[C@]4(C(=O)NS(=O)(=O)C5(CF)CC5)C[C@H]4CCCC[C@H](C)C[C@@H](C)[C@H](NC(=O)OC(C)(C)C(F)(F)F)C(=O)N3C2)c2ccccc12` [Compound 5116, 1,1,1-trifluoro-2-methylpropan-2-yl((2R,6S,7R,9S,13aR,14aR,16aS)-14a-(((1-(fluoromethyl)cyclopropyl)sulfonyl)carbamoyl)-2-((4-methoxyisoquinolin-1-yl)oxy)-7,9-dimethyl-5,16-dioxooctadecahydrocyclopropa[e]pyrrolo[1,2-a][1,4]diazacyclopentadecin-6-yl)carbamate], the half-maximal effective concentration (EC50) in experiment [1] was more than 87.4 nM; in experiment [2], 4.82 to 103 nM.

Regarding `COc1cnc(O[C@@H]2C[C@H]3C(=O)N[C@]4(C(=O)NS(=O)(=O)C5(CF)CC5)C[C@H]4CCCC[C@@H](C)C[C@@H](C)[C@H](NC(=O)OC(C)(C)C(F)(F)F)C(=O)N3C2)c2ccccc12` [Compound 5117, 1,1,1-trifluoro-2-methylpropan-2-yl((2R,6S,7R,9R,13aR,14aR,16aS)-14a-(((1-(fluoromethyl)cyclopropyl)sulfonyl)carbamoyl)-2-((4-methoxyisoquinolin-1-yl)oxy)-7,9-dimethyl-5,16-dioxooctadecahydrocyclopropa[e]pyrrolo[1,2-a][1,4]diazacyclopentadecin-6-yl)carbamate], the concentration giving a half-maximal response (EC50) in experiment [1] and in experiment [2] was less than 5.46 nM in each case.

Regarding `COc1cnc(O[C@@H]2C[C@H]3C(=O)N[C@]4(C(=O)NS(=O)(=O)C5(CF)CC5)C[C@H]4CCCC[C@H](C)C[C@@H](C)[C@H](NC(=O)OC(C)(C)C(C)(F)F)C(=O)N3C2)c2ccccc12` [Compound 5118, 3,3-difluoro-2-methylbutan-2-yl ((2R,6S,7R,9S,13 aR,14aR,16aS)-14a-(((1-(fluoromethyl)cyclopropyl)sulfonyl)carbamoyl)-2-((4-methoxyisoquinolin-1-yl)oxy)-7,9-dimethyl-5,16-dioxooctadecahydrocyclopropa[e]pyrrolo[1,2-a][1,4]diazacyclopentadecin-6-yl)carbamate], the concentration giving a half-maximal response (EC50) in experiment [1] and in experiment [2] was 4.82 to 103 nM in each case.

`COc1cnc(O[C@@H]2C[C@H]3C(=O)N[C@]4(C(=O)NS(=O)(=O)C5(CF)CC5)C[C@H]4CCCC[C@@H](C)C[C@@H](C)[C@H](NC(=O)OC(C)(C)C(C)(F)F)C(=O)N3C2)c2ccccc12` [Compound 5119, 3,3-difluoro-2-methylbutan-2-yl ((2R,6S,7R,9R,13 aR,14aR,16aS)-14a-(((1-(fluoromethyl)cyclopropyl)sulfonyl)carbamoyl)-2-((4-methoxyisoquinolin-1-yl)oxy)-7,9-dimethyl-5,16-dioxooctadecahydrocyclopropa[e]pyrrolo[1,2-a][1,4]diazacyclopentadecin-6-yl)carbamate]: the half-maximal effective concentration (EC50) in experiment [1] and in experiment [2] was less than 5.46 nM in each case.

For the molecule `COc1cnc(O[C@@H]2C[C@H]3C(=O)N[C@]4(C(=O)NS(=O)(=O)C5(CF)CC5)C[C@H]4CCCC[C@@H](C)C[C@@H](C)[C@H](NC(=O)NC(C)(C)C)C(=O)N3C2)c2ccccc12` [Compound 5120, (2R,6S,7R,9R,13aR,14aR,16aS)-6-(3-(tert-butyl)ureido)-N-((1-(fluoromethyl)cyclopropyl)sulfonyl)-2-((4-methoxyisoquinolin-1-yl)oxy)-7,9-dimethyl-5,16-dioxooctadecahydrocyclopropa[e]pyrrolo[1,2-a][1,4]diazacyclopentadecine-14a-carboxamide], the EC50 in experiment [1] and in experiment [2] was less than 5.46 nM in each case.

With `C[C@@H]1CC/C=C\[C@@H]2C[C@@]2(C(=O)NS(=O)(=O)C2(C)CC2)NC(=O)[C@@H]2C[C@@H](Oc3nccc4c(N5CCOCC5)cccc34)CN2C(=O)[C@@H](NC(=O)OC(C)(C)C)[C@H](C)C1` [Compound 5122, tert-butyl ((2R,6S,7R,9R,13aS,14aR,16aS,Z)-7,9-dimethyl-14a-(((1-methylcyclopropyl)sulfonyl)carbamoyl)-2-((5-morpholinoisoquinolin-1-yl)oxy)-5,16-dioxo-1,2,3,5,6,7,8,9,10,11,13a,14,14a,15,16,16a-hexadecahydrocyclopropa[e]pyrrolo[1,2-a][1,4]diazacyclopentadecin-6-yl)carbamate], the half-maximal effective concentration (EC50) in experiment [1] and in experiment [2] was less than 5.46 nM in each case.

On to `CCOc1ccc2c(O[C@@H]3C[C@H]4C(=O)N[C@]5(C(=O)NS(=O)(=O)C6CC6)C[C@H]5/C=C\CC[C@H](C)C[C@@H](C)[C@H](NC(=O)OC(C)(C)C)C(=O)N4C3)nccc2c1` [Compound 5127, tert-butyl ((2R,6S,7R,9S,13aS,14aR,16aS,Z)-14a-((cyclopropylsulfonyl)carbamoyl)-2-((6-ethoxyisoquinoline-1-yl)oxy)-7,9-dimethyl-5,16-dioxo-1,2,3,5,6,7,8,9,10,11,13a,14,14a,15,16,16a-hexadecahydrocyclopropa[e]pyrrolo[1,2-a][1,4]diazacyclopentadecin-6-yl)carbamate], for which the concentration giving a half-maximal response (EC50) in experiment [1] and in experiment [2] was less than 5.46 nM each time.
